Tests used:
Assay type in all cases: in vivo
rice (Oryza sativa) = test: Test B flooded paddy test, plant response rating; details: 250 g ai/ha; Flood; scale of 0 to 100 where 0 is no effect and 100 is complete control; 13 to 15 days
Procedure, shortened: (§1)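 Ratings were visual and made relative to untreated controls after 13 to 15 greenhouse days.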

[1] = tested on: barnyardgrass (Echinochloa crus-galli); test: Test B flooded paddy test, plant response rating; details: 250 g ai/ha; Flood; scale of 0 to 100 where 0 is no effect and 100 is complete control; 13 to 15 days
Procedure, shortened: as §1

[2] = tested on: sedge, umbrella (small-flower umbrella sedge, Cyperus difformis); test: Test B flooded paddy test, plant response rating; details: 250 g ai/ha; Flood; scale of 0 to 100 where 0 is no effect and 100 is complete control; 13 to 15 days
Procedure, shortened: as §1

[3] = tested on: ducksalad (Heteranthera limosa); test: Test B flooded paddy test, plant response rating; details: 250 g ai/ha; Flood; scale of 0 to 100 where 0 is no effect and 100 is complete control; 13 to 15 days
Procedure, shortened: as §1

[4] = tested on: wheat (Triticum aestivum); test: Test A postemergence, visual injury rating; details: 0 is no effect, 100 is complete control; for Wheat plant response rating: 0 to 100 scale, approximately 10 days
Procedure, shortened: (§2)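 Compounds in non-phytotoxic solvent with surfactant applied as soil spray preemergence, or postemergence to plants 2-10 cm at one- to two-leaf stage, in loam/sand. After approximately 10 days in greenhouse, injury rated visually versus untreated controls, 0 (no effect) to 100 (complete control).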

corn (Zea mays) = test: Test A postemergence, visual injury rating; details: 0 is no effect, 100 is complete control; for Corn plant response rating: 0 to 100 scale, approximately 10 days
Procedure, shortened: as §2

[5] = tested on: barnyardgrass (Echinochloa crus-galli); test: Test A postemergence, visual injury rating; details: 0 is no effect, 100 is complete control; for Barnyardgrass plant response rating: 0 to 100 scale, approximately 10 days
Procedure, shortened: as §2

[6] = tested on: pigweed (Amaranthus retroflexus); test: Test A postemergence, visual injury rating; details: 0 is no effect, 100 is complete control; for Pigweed plant response rating: 0 to 100 scale, approximately 10 days
Procedure, shortened: as §2

[7] = tested on: giant foxtail (Setaria faberii); test: Test A postemergence, visual injury rating; details: 0 is no effect, 100 is complete control; for Foxtail, Giant plant response rating: 0 to 100 scale, approximately 10 days
Procedure, shortened: as §2

[8] = tested on: Italian ryegrass (Lolium multiflorum); test: Test A postemergence, visual injury rating; details: 0 is no effect, 100 is complete control; for Ryegrass, Italian plant response rating: 0 to 100 scale, approximately 10 days
Procedure, shortened: as §2

[9] = tested on: galium (catchweed bedstraw, Galium aparine); test: Test A postemergence, visual injury rating; details: 0 is no effect, 100 is complete control; for Galium plant response rating: 0 to 100 scale, approximately 10 days
Procedure, shortened: as §2

[10] = tested on: ragweed (common ragweed, Ambrosia elatior); test: Test A postemergence, visual injury rating; details: 0 is no effect, 100 is complete control; for Ragweed plant response rating: 0 to 100 scale, approximately 10 days
Procedure, shortened: as §2

[11] = tested on: blackgrass (Alopecurus myosuroides); test: Test A postemergence, visual injury rating; details: 0 is no effect, 100 is complete control; for Blackgrass plant response rating: 0 to 100 scale, approximately 10 days
Procedure, shortened: as §2

kochia (Kochia scoparia) [12] = test: Test A postemergence, visual injury rating; details: 0 is no effect, 100 is complete control; for Kochia plant response rating: 0 to 100 scale, approximately 10 days
Procedure, shortened: as §2

[13] = tested on: barnyardgrass (Echinochloa crus-galli); test: Test A preemergence, visual injury rating; details: for Plant response rating, Barnyardgrass: 31 g ai/ha, 0 to 100 scale, 0 no effect, 100 complete control; for Barnyardgrass plant response rating: 0 to 100 scale (0 no effect, 100 complete control)
Procedure, shortened: as §2

[14] = tested on: pigweed (Amaranthus retroflexus); test: Test A preemergence, visual injury rating; details: for Plant response rating, Pigweed: 31 g ai/ha, 0 to 100 scale, 0 no effect, 100 complete control; for Pigweed plant response rating: 0 to 100 scale (0 no effect, 100 complete control)
Procedure, shortened: as §2

[15] = tested on: giant foxtail (Setaria faberii); test: Test A preemergence, visual injury rating; details: for Plant response rating, Foxtail, Giant: 31 g ai/ha, 0 to 100 scale, 0 no effect, 100 complete control; for Foxtail, Giant plant response rating: 0 to 100 scale (0 no effect, 100 complete control)
Procedure, shortened: as §2

[16] = tested on: Italian ryegrass (Lolium multiflorum); test: Test A preemergence, visual injury rating; details: for Plant response rating, Ryegrass, Italian: 31 g ai/ha, 0 to 100 scale, 0 no effect, 100 complete control; for Ryegrass, Italian plant response rating: 0 to 100 scale (0 no effect, 100 complete control)
Procedure, shortened: as §2

[17] = tested on: ragweed (common ragweed, Ambrosia elatior); test: Test A preemergence, visual injury rating; details: for Plant response rating, Ragweed: 31 g ai/ha, 0 to 100 scale, 0 no effect, 100 complete control; for Ragweed plant response rating: 0 to 100 scale (0 no effect, 100 complete control)
Procedure, shortened: as §2

kochia (Kochia scoparia) [18] = test: Test A preemergence, visual injury rating; details: for Plant response rating, Kochia: 31 g ai/ha, 0 to 100 scale, 0 no effect, 100 complete control; for Kochia plant response rating: 0 to 100 scale (0 no effect, 100 complete control)
Procedure, shortened: as §2

Row | Compound | Plant response rating, Rice (rice (Oryza sativa)) | Plant response rating, Barnyardgrass [1] | Plant response rating, Sedge, Umbrella [2] | Plant response rating, Ducksalad [3] | Wheat plant response rating ([4]; 125 g ai/ha) | Corn plant response rating (corn (Zea mays); 125 g ai/ha) | Barnyardgrass plant response rating ([5]; 125 g ai/ha) | Pigweed plant response rating ([6]; 125 g ai/ha) | Foxtail, Giant plant response rating ([7]; 125 g ai/ha) | Ryegrass, Italian plant response rating ([8]; 125 g ai/ha) | Galium plant response rating ([9]; 125 g ai/ha) | Ragweed plant response rating ([10]; 125 g ai/ha) | Blackgrass plant response rating ([11]; 125 g ai/ha) | Kochia plant response rating (kochia (Kochia scoparia) [12]; 125 g ai/ha) | Barnyardgrass plant response rating ([13]; 125 g ai/ha) | Pigweed plant response rating ([14]; 125 g ai/ha) | Foxtail, Giant plant response rating ([15]; 125 g ai/ha) | Ryegrass, Italian plant response rating ([16]; 125 g ai/ha) | Ragweed plant response rating ([17]; 125 g ai/ha) | Kochia plant response rating (kochia (Kochia scoparia) [18]; 125 g ai/ha) | also measured
1 | CCCCCc1c(C#N)cccc1Oc1ncc(Cl)cn1 [Compound 87] | 35 | 50 | 100 | 100 | 30 | 50 | 100 | 60 | 90 | 30 | 70 | 0 | 70 | 100 | 100 | 100 | 100 | 20 | 0 | 90 | Wheat plant response rating ([4]; 31 g ai/ha): 20; Corn plant response rating (corn (Zea mays); 31 g ai/ha): 40; Barnyardgrass plant response rating ([5]; 31 g ai/ha): 40; Pigweed plant response rating ([6]; 31 g ai/ha): 40; Foxtail, Giant plant response rating ([7]; 31 g ai/ha): 40; Ryegrass, Italian plant response rating ([8]; 31 g ai/ha): 0; Galium plant response rating ([9]; 31 g ai/ha): 30; Ragweed plant response rating ([10]; 31 g ai/ha): 0; Blackgrass plant response rating ([11]; 31 g ai/ha): 10; Kochia plant response rating (kochia (Kochia scoparia) [12]; 31 g ai/ha): 100; Plant response rating, Barnyardgrass [13]: 70; Plant response rating, Pigweed [14]: 40; Plant response rating, Foxtail, Giant [15]: 60; Plant response rating, Ryegrass, Italian [16]: 0; Plant response rating, Ragweed [17]: 0; Plant response rating, Kochia (kochia (Kochia scoparia) [18]): 30
2 | O=C(OCCC(F)(F)F)c1cc(Cl)ccc1Oc1ncc(Cl)cn1 [Compound 88] | 20 | 0 | 0 | 0 | 0 | 0 | 0 | 0 | 0 | 0 | 0 | 0 | 0 | 0 | 0 | 0 | 0 | 0 | 0 | 0 | Wheat plant response rating ([4]; 31 g ai/ha): 0; Corn plant response rating (corn (Zea mays); 31 g ai/ha): 0; Barnyardgrass plant response rating ([5]; 31 g ai/ha): 0; Pigweed plant response rating ([6]; 31 g ai/ha): 0; Foxtail, Giant plant response rating ([7]; 31 g ai/ha): 0; Ryegrass, Italian plant response rating ([8]; 31 g ai/ha): 0; Galium plant response rating ([9]; 31 g ai/ha): 0; Ragweed plant response rating ([10]; 31 g ai/ha): 0; Blackgrass plant response rating ([11]; 31 g ai/ha): 0; Kochia plant response rating (kochia (Kochia scoparia) [12]; 31 g ai/ha): 0; Plant response rating, Barnyardgrass [13]: 0; Plant response rating, Pigweed [14]: 0; Plant response rating, Foxtail, Giant [15]: 0; Plant response rating, Ryegrass, Italian [16]: 0; Plant response rating, Ragweed [17]: 0; Plant response rating, Kochia (kochia (Kochia scoparia) [18]): 0
3 | C=C(C)CCOC(=O)c1c(Br)cccc1Oc1ncc(Cl)cn1 [Compound 90] | 0 | 0 | 60 | 30 | 0 | 10 | 30 | 50 | 60 | 0 | 20 | 0 | 0 | 50 | 40 | 0 | 70 | 0 | 0 | 0 | Wheat plant response rating ([4]; 31 g ai/ha): 0; Corn plant response rating (corn (Zea mays); 31 g ai/ha): 0; Barnyardgrass plant response rating ([5]; 31 g ai/ha): 0; Pigweed plant response rating ([6]; 31 g ai/ha): 10; Foxtail, Giant plant response rating ([7]; 31 g ai/ha): 10; Ryegrass, Italian plant response rating ([8]; 31 g ai/ha): 0; Galium plant response rating ([9]; 31 g ai/ha): 0; Ragweed plant response rating ([10]; 31 g ai/ha): 0; Blackgrass plant response rating ([11]; 31 g ai/ha): 0; Kochia plant response rating (kochia (Kochia scoparia) [12]; 31 g ai/ha): 30; Plant response rating, Barnyardgrass [13]: 0; Plant response rating, Pigweed [14]: 0; Plant response rating, Foxtail, Giant [15]: 10; Plant response rating, Ryegrass, Italian [16]: 0; Plant response rating, Ragweed [17]: 0; Plant response rating, Kochia (kochia (Kochia scoparia) [18]): 0
4 | C=CCSC(=O)c1c(Br)cccc1Oc1ncc(Cl)cn1 [Compound 91] | 20 | 0 | 95 | 100 | 20 | 20 | 30 | 100 | 30 | 0 | 70 | 0 | 20 | 60 | 90 | 40 | 70 | 0 | 0 | 20 | Wheat plant response rating (0 to 100 scale) ([4]; 500 g ai/ha): 30; Corn plant response rating (0 to 100 scale) (corn (Zea mays); 500 g ai/ha): 50; Barnyardgrass plant response rating (0 to 100 scale) ([5]; 500 g ai/ha): 100; Pigweed plant response rating (0 to 100 scale) ([6]; 500 g ai/ha): 100; Foxtail, Giant plant response rating (0 to 100 scale) ([7]; 500 g ai/ha): 100; Ryegrass, Italian plant response rating (0 to 100 scale) ([8]; 500 g ai/ha): 30; Galium plant response rating (0 to 100 scale) ([9]; 500 g ai/ha): 90; Ragweed plant response rating (0 to 100 scale) ([10]; 500 g ai/ha): 20; Blackgrass plant response rating (0 to 100 scale) ([11]; 500 g ai/ha): 30; Kochia plant response rating (0 to 100 scale) (kochia (Kochia scoparia) [12]; 500 g ai/ha): 100; Barnyardgrass plant response rating ([13]; 500 g ai/ha): 100; Pigweed plant response rating ([14]; 500 g ai/ha): 100; Foxtail, Giant plant response rating ([15]; 500 g ai/ha): 100; Ryegrass, Italian plant response rating ([16]; 500 g ai/ha): 80; Ragweed plant response rating ([17]; 500 g ai/ha): 0; Kochia plant response rating (kochia (Kochia scoparia) [18]; 500 g ai/ha): 100
5 | O=C(NCCC(F)(F)F)c1c(Br)cccc1Oc1ncc(Cl)cn1 [Compound 93] | 0 | 0 | 0 | 0 | 0 | 0 | 0 | 0 | 0 | 0 | 0 | 0 | 0 | 0 | 0 | 0 | 0 | 0 | 0 | 0 | Wheat plant response rating ([4]; 31 g ai/ha): 0; Corn plant response rating (corn (Zea mays); 31 g ai/ha): 0; Barnyardgrass plant response rating ([5]; 31 g ai/ha): 0; Pigweed plant response rating ([6]; 31 g ai/ha): 0; Foxtail, Giant plant response rating ([7]; 31 g ai/ha): 0; Ryegrass, Italian plant response rating ([8]; 31 g ai/ha): 0; Galium plant response rating ([9]; 31 g ai/ha): 0; Ragweed plant response rating ([10]; 31 g ai/ha): 0; Blackgrass plant response rating ([11]; 31 g ai/ha): 0; Kochia plant response rating (kochia (Kochia scoparia) [12]; 31 g ai/ha): 0; Plant response rating, Barnyardgrass [13]: 0; Plant response rating, Pigweed [14]: 0; Plant response rating, Foxtail, Giant [15]: 0; Plant response rating, Ryegrass, Italian [16]: 0; Plant response rating, Ragweed [17]: 0; Plant response rating, Kochia (kochia (Kochia scoparia) [18]): 0

From US11053204B2, “Pyrimidinyloxy benzene derivatives as herbicides” (FMC Corporation, priority 2015, dated 2021)
